Structures can show the parent of a compound that is named as a salt.

The values below come from article PMC8157280 (Pharmaceutics, 2021).

In series [1] the test system is Sprague-Dawley rats. In words: GHB-induced respiratory depression, whole-body plethysmography. The settings on record: for Breathing frequency (in words) / Minute volume (in words) / Tidal volume (in words): GHB 600 mg/kg i.v. alone or with ketamine 6 mg/kg + 1 mg/kg/min, treatments 5 min after GHB-ketamine, compared to GHB-ketamine; for Respiratory depression (in words): ketamine alone, or naloxone 2 mg/kg i.v. with or without SCH50911 10 mg/kg given 5 min after GHB-ketamine.

Series [2] concerns RBE4 cells. In words: [3H]-GHB uptake in RBE4 cells. The class given is cell-based, rat. The settings on record: for GHB uptake compared with GHB alone / GHB uptake in the presence of staurosporine: 10 mM GHB; for GHB uptake in the presence of staurosporine: 2 h pre-incubation with ketamine 40 µM or PMA 100 nM plus staurosporine. The protocol:
The immortalized rat brain capillary endothelial cell line (RBE4) was kindly provided by Professor P. Couraud (Institut Cochin, Paris, France). RBE4 cells (passages 39–44) were used in all studies, as described previously. Briefly, cells were grown at 37 °C with 5% CO2 on Type-I collagen-coated flasks, and media was changed every 2–3 days. The culture medium was 1:1 α-minimum essentials medium/Hams F10 nutrient mixture supplemented with L-glutamine (2.0 mM), geneticin (300 μg/mL), human recombinant fibroblast growth factor (1 ng/mL), gentamicin (50 μg/mL), and 10% v/v fetal bovine serum (FBS). Cells were passaged using 0.25% trypsin/EDTA and seeded on individual 35 × 10 mm collagen-coated wells for uptake studies which were performed 7 days post-confluence (the time needed for formation of tight junctions).
In addition, the effect of various pre-incubation times with ketamine (0.5, 2, 4, 8 and 24 h) was also studied in these cells. […] After cell lysis, NaOH was neutralized with 0.5 mL 1.0 N HCl.

Series [3] in a line: GHB blood-brain partitioning at steady state. Particulars: GHB 400 mg/kg i.v. bolus + 208 mg/kg/h infusion alone; steady state 4 h.
In series [4] the test system is Sprague-Dawley rats. The series is described as follows: Fatality after GHB with or without ketamine. Particulars: GHB 400 mg/kg i.v. bolus + 208 mg/kg/h infusion and/or ketamine 6 mg/kg bolus + 1 mg/kg/min infusion; n = 8.
Details of series [5]: method as in PMID 12667908. The settings on record: GHB 400 mg/kg i.v. alone; cited from earlier work.
Series [6] in a line: GHB toxicokinetics (plasma and urine, noncompartmental analysis). Particulars: for Ketamine plasma concentration in the study: ketamine 6 mg/kg i.v. bolus + 1 mg/kg/min infusion, maintained up to 1 h.
For series [7], the system named is Sprague-Dawley rats. The series is described as follows: Sedative effect (sleep time, righting reflex). The settings on record: GHB 400 mg/kg i.v. + ketamine 6 or 20 mg/kg i.v.; compared to GHB or ketamine alone.
The conditions of series [8]: cited from earlier work.
[9] abbreviates: GHB 600 mg/kg i.v. bolus, ketamine 6 mg/kg i.v. bolus + 1 mg/kg/min infusion, L-lactate 66 mg/kg + 302.5 mg/kg/h, AR-C155858 1 mg/kg, SCH50911 10 mg/kg or naloxone 2 mg/kg i.v. 5 min after GHB-ketamine.

With `C[C@H](O)C(=O)[O-].[Na+]` [L-lactate, sodium L-lactate], in series [1], the “Breathing frequency (in words)” value is “significant improvement in breathing frequency and minute volume”; the “Minute volume (in words)” value was “significant improvement in breathing frequency and minute volume”; the “Tidal volume (in words)” value is “no change in tidal volume”.

Regarding `Cc1n[nH]c(C)c1Cc1sc2c(c1C(=O)N1C[C@H](O)CO1)c(=O)n(C)c(=O)n2CC(C)C` [AR-C155858, 6-[(3,5-Dimethyl-1H-pyrazol-4-yl)methyl]-5-[[(4S)-4-hydroxy-2-isoxazolidinyl]carbonyl]-3-methyl-1-(2-methylpropyl)thieno [2,3-d]pyrimidine-2,4(1H,3H)-dione], in series [1], the “Breathing frequency (in words)” value was “significant and rapid improvement in breathing frequency”; the “Minute volume (in words)” value is “completely reversed the decline in minute volume”.

As to `CN[C@@H]1C[C@H]2O[C@@](C)([C@@H]1OC)n1c3ccccc3c3c4c(c5c6ccccc6n2c5c31)C(=O)NC4` [staurosporine], in series [2] (RBE4 cells, co-incubation during 2 h pre-incubation), the “Effect on the increase in GHB uptake by PMA and ketamine” value is listed as “significantly inhibited”.

For `O=C(O)CCCO` [GHB, γ-hydroxybutyric acid], the “Cbrain GHB” value in series [3] came out at 0.21 ± 0.03 mg/g. The Fatality result in series [4] is “No death was observed”. Moreover, in series [1], the “Breathing frequency (in words)” value was “decrease in breathing frequency”, the “Minute volume (in words)” value is reported as “remaining unchanged” and the “Tidal volume (in words)” value was “compensatory increase in tidal volume”. Further, in series [1] (setting [9]), the “Frequency AUEC” value amounted to 5540 ± 1000 breaths, the “Frequency Emax” value is listed as 31 ± 5 breaths/min and the “Frequency Td” value stood at 153 ± 12.5 min. Further, in series [5], the “Cbrain (brain GHB concentration at RRR)” value is given as 71.7 ± 9.89 µg/g and the “Cplasma (plasma GHB concentration at RRR)” value is 379 ± 86.2 µg/mL.

With `CC1(C)CO[C@@H](CC(=O)O)CN1` [SCH50911, (2S)-(+)-5,5-Dimethyl-2-morpholineacetic acid], in series [1], the “Breathing frequency (in words)” value was “significant improvement in breathing frequency and minute volume”; the “Minute volume (in words)” value is “significant improvement in breathing frequency and minute volume”; the “Tidal volume (in words)” value is listed as “compensatory increase in tidal volume was also absent”.

On to `CNC1(c2ccccc2Cl)CCCCC1=O` (racemic) [ketamine, (±) Ketamine Hydrochloride], for which the “GHB uptake compared with GHB alone” value in series [2] (15 s, 2 h pre-incubation with ketamine 5, 15 or 40 µM at 37 °C) is on record as “significantly increased”; in series [2] (15 s, ketamine 5, 15, 40 µM without pre-incubation), “no significant change in GHB uptake”; in series [2] (0.5, 2 and 4 h pre-incubation with 40 µM ketamine) it was “significant increases in GHB uptake”; in series [2] (longer pre-incubation times (8 and 24 h) with 40 µM ketamine), “no significant changes”. In addition, the “GHB uptake in the presence of staurosporine” value in series [2] is reported as “no increase in GHB uptake”. Further, the Fatality entry in series [4] is listed as “No death was observed”. The “Steady-state concentration of ketamine with GHB compared to ketamine alone” value in series [6] (GHB 600 mg/kg i.v., ketamine 6 mg/kg bolus + 1 mg/kg/min for 60 min) is “no significant difference”. Moreover, the “Ketamine plasma concentration in the study” value in series [6] was ~ 7 µg/mL; in series [6] (listed as Ketamine), 7 µg/mL. In addition, the “Respiratory depression (in words)” value in series [1] is listed as “did not result in any significant respiratory depression”. Moreover, in series [7], the “Effect of co-administration on GHB sleep time” value is given as “significant increase in sleep time”. For the same compound, the “Ketamine plasma concentrations associated with fatalities” value in series [8] was 1.8 to 27.4 µg/mL.

Turning to `C=CCN1CC[C@]23c4c5ccc(O)c4O[C@H]2C(=O)CC[C@@]3(O)[C@H]1C5` [Naloxone, naloxone hydrochloride dihydrate], the “Respiratory depression (in words)” value in series [1] is on record as “no effects”.

For `CCCCCCCCCCCCCC(=O)O[C@@H]1[C@@H](C)[C@@]2(O)[C@@H](C=C(CO)C[C@]3(O)C(=O)C(C)=C[C@@H]23)[C@@H]2C(C)(C)[C@]12OC(C)=O` [PMA, phorbol 12-myristate 13-acetate], the “GHB uptake compared with GHB alone” value in series [2] (2 h pre-incubation with PMA 100 nM) is listed as “significant increase in GHB uptake”. The “GHB uptake in the presence of staurosporine” value in series [2] is reported as “no increase in GHB uptake”.
